In patent publication US5663148A, “Anaphylatoxin receptor ligands containing lipophilic residues” (Abbott Laboratories, priority 1994, dated 1997):

Target: T1, C5a receptor (Homo sapiens, UniProt P21730)
T1 construct: from tissue; host or cells: polymorphonuclear leukocyte (PMNL) membrane fragments
T1 sequence (P21730 1-350): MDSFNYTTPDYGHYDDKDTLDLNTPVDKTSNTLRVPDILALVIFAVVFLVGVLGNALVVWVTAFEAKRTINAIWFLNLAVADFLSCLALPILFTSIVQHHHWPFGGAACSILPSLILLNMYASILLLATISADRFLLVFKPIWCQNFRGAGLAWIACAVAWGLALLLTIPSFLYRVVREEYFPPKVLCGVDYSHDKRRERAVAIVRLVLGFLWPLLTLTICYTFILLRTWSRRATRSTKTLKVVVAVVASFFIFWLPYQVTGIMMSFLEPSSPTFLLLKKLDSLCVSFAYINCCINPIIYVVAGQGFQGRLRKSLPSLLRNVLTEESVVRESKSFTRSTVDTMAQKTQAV
Experiment: Anaphylatoxin (C5a) receptor binding Ki determination, 125I-C5a on PMNL membrane fragments
Settings: read-out: Ki (In vitro C5a Receptor Binding Potency)
Protocol: The membrane-bound radiolabeled C5a was separated from the free radiolabeled C5a by filtration, and the recovered gamma radioactivity was measured. […] Free and membrane-bound ligand were separated by filtration.

SMILES	Ki [µM]
CC(C)C[C@H](NC(=O)CNC(=O)C=C1CNc2ccccc21)C(=O)N[C@H](CCCc1ccccc1)C(=O)N[C@@H](CCCNC(=N)N)C(=O)O (single isomer, unassigned) [Example 65]	0.3
CC(C)C[C@H](NC(=O)CNC(=O)C=C1CNc2ccccc21)C(=O)N[C@H](CCCc1ccccc1)C(=O)N[C@@H](CCCNC(=N)N)C(=O)O (single isomer, unassigned) [Example 66]	0.046
CC(C)C[C@H](NC(=O)[C@H](C)NC(=O)[C@H](CC1CCCCC1)NC(=O)[C@@H]1CCCN1C(=O)[C@@H](N)CCCCN)C(=O)NC(CCCc1ccccc1)C(=O)N[C@@H](CCCNC(=N)N)C(=O)O (single isomer, unassigned) [Example 68]	14
CC(C)C[C@H](NC(=O)[C@H](C)NC(=O)[C@H](CC1CCCCC1)NC(=O)[C@@H]1CCCN1C(=O)[C@@H](N)CCCCN)C(=O)NC(CCCc1ccccc1)C(=O)N[C@@H](CCCNC(=N)N)C(=O)O (single isomer, unassigned) [Example 69]	0.14
CC(C)C[C@H](NC(=O)CNC(=O)[C@H](CC1CCCCC1)NC(=O)CCCCCN)C(=O)NC(CCCc1ccccc1)C(=O)N[C@@H](CCCNC(=N)N)C(=O)O (single isomer, unassigned) [Example 70]	4.5
CC(C)C[C@H](NC(=O)CNC(=O)[C@H](CC1CCCCC1)NC(=O)CCCCCN)C(=O)NC(CCCc1ccccc1)C(=O)N[C@@H](CCCNC(=N)N)C(=O)O (single isomer, unassigned) [Example 71]	0.15
CC(C)C[C@H](NC(=O)CNC(=O)[C@H](CC1CCCCC1)NC(=O)CN)C(=O)NC(CCCc1ccccc1)C(=O)N[C@@H](CCCNC(=N)N)C(=O)O (single isomer, unassigned) [Example 72]	4.27
CC(C)C[C@H](NC(=O)CNC(=O)[C@H](CC1CCCCC1)NC(=O)CN)C(=O)NC(CCCc1ccccc1)C(=O)N[C@@H](CCCNC(=N)N)C(=O)O (single isomer, unassigned) [Example 73]	1.99
CC(C)C[C@H](NC(=O)CNC(=O)[C@H](CC1CCCCC1)N(C)C(=O)CCCCCCN)C(=O)NC(CCCc1ccccc1)C(=O)N[C@@H](CCCNC(=N)N)C(=O)O (single isomer, unassigned) [Example 75]	17.2
CC(C)C[C@H](NC(=O)CNC(=O)[C@H](CC1CCCCC1)N(C)C(=O)CCCCCCN)C(=O)NC(CCCc1ccccc1)C(=O)N[C@@H](CCCNC(=N)N)C(=O)O (single isomer, unassigned) [Example 76]	1.5
CC(C)C[C@H](NC(=O)CNC(=O)[C@H](CC1CCCCC1)NC(=O)CCN)C(=O)NC(CCCc1ccccc1)C(=O)N[C@@H](CCCNC(=N)N)C(=O)O (single isomer, unassigned) [Example 84]	3.9
CC(C)C[C@H](NC(=O)CNC(=O)[C@H](CC1CCCCC1)NC(=O)CCN)C(=O)NC(CCCc1ccccc1)C(=O)N[C@@H](CCCNC(=N)N)C(=O)O (single isomer, unassigned) [Example 85]	2
CC(C)C[C@H](NC(=O)[C@H](CC1CCCCC1)NC(=O)CCCCCN)C(=O)NC(CCCc1ccccc1)C(=O)N[C@@H](CCCNC(=N)N)C(=O)O (single isomer, unassigned) [Example 86, N-(6-Aminohexanoyl)-{(25)-2-Amino-3-cyclohexylpropanoyl}-Leucyl-{(R/S)-2-Amino-5-phenylpentanoyl}-Arginyl-OH]	44.8
CC(C)C[C@H](NC(=O)[C@H](CC1CCCCC1)NC(=O)CCCCCN)C(=O)NC(CCCc1ccccc1)C(=O)N[C@@H](CCCNC(=N)N)C(=O)O (single isomer, unassigned) [Example 87]	5.8
N=C(N)NCCC[C@H](NC(=O)C(CCCc1ccccc1)NC(=O)CN(Cc1ccccc1)C(=O)[C@H](CCCCN)NC(=O)[C@@H](N)Cc1ccccc1)C(=O)O (single isomer, unassigned) [Example 94, H-Phenylalanyl-Lysyl-Glycyl(N-benzyl)-{(R/S)-2-Amino-5-phenylpentanoyl}-Arginyl-OH]	5.8
N=C(N)NCCC[C@H](NC(=O)C(CCCc1ccccc1)NC(=O)CN(Cc1ccccc1)C(=O)[C@H](CCCCN)NC(=O)[C@@H](N)Cc1ccccc1)C(=O)O (single isomer, unassigned) [Example 95, H-Phenylalanyl-Lysyl-Glycyl(N-benzyl)-{(R/S)-2-Amino-5-phenylpentanoyl}-Arginyl-OH]	34
CC(C)C[C@H](NC(=O)[C@H](CCCCN)NC(=O)[C@@H](N)CC1CCCCC1)C(=O)NC(CCCc1ccccc1)C(=O)N[C@@H](CCCNC(=N)N)C(=O)O (single isomer, unassigned) [Example 96]	33.2
CC(C)C[C@H](NC(=O)[C@H](CCCCN)NC(=O)[C@@H](N)CC1CCCCC1)C(=O)NC(CCCc1ccccc1)C(=O)N[C@@H](CCCNC(=N)N)C(=O)O (single isomer, unassigned) [Example 97]	8.2

SMILES	Ki [µM]
CC(C)C[C@@H](NC(=O)CNC(=O)[C@H](CC1CCCCC1)NC(=O)CCCCCN)C(=O)NC(CCCc1ccccc1)C(=O)N[C@@H](CCCNC(=N)N)C(=O)O (single isomer, unassigned) [Example 99]	4.8
CC(C)C[C@@H](NC(=O)CNC(=O)[C@H](CC1CCCCC1)NC(=O)CCCCCN)C(=O)NC(CCCc1ccccc1)C(=O)N[C@@H](CCCNC(=N)N)C(=O)O (single isomer, unassigned) [Example 100]	60
CC(C)[C@H](NC(=O)CNC(=O)[C@H](CC1CCCCC1)NC(=O)CCCCCN)C(=O)NC(CCCc1ccccc1)C(=O)N[C@@H](CCCNC(=N)N)C(=O)O (single isomer, unassigned) [Example 101]	52
CC(C)[C@H](NC(=O)CNC(=O)[C@H](CC1CCCCC1)NC(=O)CCCCCN)C(=O)NC(CCCc1ccccc1)C(=O)N[C@@H](CCCNC(=N)N)C(=O)O (single isomer, unassigned) [Example 102, N-(6-Aminohexanoyl)-{(2S)-2-Amino-3-cyclohexylpropanoyl}-Glycyl-Valyl-{(FFS)-2-Amino-5-phenylpentanoyl}-Arginyl-OH]	21.7
CC(C)C[C@H](NC(=O)CNC(=O)C(N)CCCc1ccccc1)C(=O)N[C@H](CCCc1ccccc1)C(=O)N[C@@H](CCCNC(=N)N)C(=O)O (single isomer, unassigned) [Example 104]	2.4
CC(C)C[C@H](NC(=O)CNC(=O)C(N)CCCc1ccccc1)C(=O)N[C@H](CCCc1ccccc1)C(=O)N[C@@H](CCCNC(=N)N)C(=O)O (single isomer, unassigned) [Example 105]	0.33
CC(C)C[C@H](NC(=O)[C@@H]1CCCN1C(=O)[C@H](CC1CCCCC1)NC(=O)CNC(=O)CCCCCN)C(=O)NC(CCCc1ccccc1)C(=O)N[C@@H](CCCNC(=N)N)C(=O)O (single isomer, unassigned) [Example 110]	9.3
CC(C)C[C@H](NC(=O)[C@@H]1CCCN1C(=O)[C@H](CC1CCCCC1)NC(=O)CNC(=O)CCCCCN)C(=O)NC(CCCc1ccccc1)C(=O)N[C@@H](CCCNC(=N)N)C(=O)O (single isomer, unassigned) [Example 111]	1
CC(C)C[C@H](NC(=O)CNC(=O)[C@H](CC1CCCCC1)NC(=O)CN(C)C(=O)CCCN)C(=O)NC(CCCc1ccccc1)C(=O)N[C@@H](CCCNC(=N)N)C(=O)O (single isomer, unassigned) [Example 112]	17.8
CC(C)C[C@H](NC(=O)CCNC(=O)[C@H](CC1CCCCC1)NC(=O)CCCCCN)C(=O)NC(CCCc1ccccc1)C(=O)N[C@@H](CCCNC(=N)N)C(=O)O (single isomer, unassigned) [Example 114]	18.6
CC(C)C[C@H](NC(=O)CCNC(=O)[C@H](CC1CCCCC1)NC(=O)CCCCCN)C(=O)NC(CCCc1ccccc1)C(=O)N[C@@H](CCCNC(=N)N)C(=O)O (single isomer, unassigned) [Example 115]	5.6
CC(C)C[C@H](NC(=O)[C@H](C)NC(=O)[C@H](CC1CCCCC1)NC(=O)CCCCCN)C(=O)NC(CCCc1ccccc1)C(=O)N[C@@H](CCCNC(=N)N)C(=O)O (single isomer, unassigned) [Example 121]	7.15
CC(C)C[C@H](NC(=O)CNC(=O)[C@H](Cc1ccccc1)NC(=O)CCCCCN)C(=O)NC(CCCc1ccccc1)C(=O)N[C@@H](CCCNC(=N)N)C(=O)O (single isomer, unassigned) [Example 124, N-(6-Aminohexanoyl)-Phenylalanyl-Glycyl-Leucyl{(R/S)-2-Amino-5-phenylpentanoyl}-Arginyl-OH]	34
CC(C)C[C@H](NC(=O)CNC(=O)[C@H](Cc1ccccc1)NC(=O)CCCCCN)C(=O)NC(CCCc1ccccc1)C(=O)N[C@@H](CCCNC(=N)N)C(=O)O (single isomer, unassigned) [Example 125, N-(6-Aminohexanoyl)-Phenylalanyl-Glycyl-Leucyl-{(R/S)-2-Amino-5-phenylpentanoyl}-Arginyl-OH]	0.83
CC(C)C[C@H](NC(=O)[C@@H](C)NC(=O)[C@H](CC1CCCCC1)NC(=O)CCCCCN)C(=O)NC(CCCc1ccccc1)C(=O)N[C@@H](CCCNC(=N)N)C(=O)O (single isomer, unassigned) [Example 126]	13.4
CC(C)C[C@H](NC(=O)[C@@H](C)NC(=O)[C@H](CC1CCCCC1)NC(=O)CCCCCN)C(=O)NC(CCCc1ccccc1)C(=O)N[C@@H](CCCNC(=N)N)C(=O)O (single isomer, unassigned) [Example 127]	23.3
CN[C@@H](Cc1ccccc1)C(=O)N[C@@H](CCCCN)C(=O)N1CCC[C@H]1C(=O)N[C@@H](CC1CCCCC1)C(=O)N[C@@H](C)C(=O)N[C@@H](CC(C)C)C(=O)NC(CCCc1ccccc1)C(=O)N[C@@H](CCCNC(=N)N)C(=O)O (single isomer, unassigned) [Example 128]	0.027
